# Measurements reported in PMC9024523, “Phenoxyaromatic Acid Analogues as Novel Radiotherapy Sensitizers: Design, Synthesis and Biological Evaluation” (Molecules, 2022).
# Several values for one entry are separate records, joined by “and”; a condition that tells them apart may be missing. Equal values may be shown once. Entries after “also recorded” stand apart in the source; their conditions may differ.
# How the values were obtained:
# mouse red blood cells = test: In vitro red blood cell-based assay (oxygen equilibrium curve, Softron analyzer); settings: final effector concentration 2 mM, mean ± SD; for P50/P50C: P50C = control with 1% DMSO; for P50: 1% DMSO; for P50 / ∆P50: mouse red blood cells; for ∆P50: ∆P50 = P50 − P50C
# Excerpt: In the first stage of our research, three series of analogues were designed and synthesized to explore refinement of the hydrophobic parts of 19f, 19m, 24a and 24b; hinge areas of 18g, 19b and 19y; and tail regions of 15c, 15d and 16c, respectively. We used the Softron Analyzer to evaluate the effect of these compounds on the half-blood oxygen saturation(P50) value of red blood cells. The most promising phenoxyaromatic acid compound, efaproxiral, was used as a positive control. […] The results reminded us that the modification of the hydrophobic part or linker extension is beneficial to improve an allosteric effect.
# Eight-week-old female C57BL6J mice were purchased from Beijing Vital River Laboratory Animal Technology Co., Ltd. A total of 540 μL mouse blood was added into the 1.5 mL centrifuge tube, followed by adding 60 μL 3.8% sodium citrate. The mixture was then centrifuged at 1500 rpm for 10 min, the supernatant was carefully aspirated, and the cells were washed three times with PBS solution. After mixing packed red blood cells with Alsever’s solution in a ratio of 1:1, a blood gas analyzer (RADIOMETER ABL 90) was used to analyze the red blood cell density and hemoglobin concentration.
# All of the compounds were prepared as 200 mM stock solutions in DMSO. Oxygen equilibrium measurements were performed with the Softron analyzer (Softron Medical Products, Beijing, China) using mouse red blood cells. The samples were prepared by adding 3 mg hemoglobin equivalent of red blood cells into 3.92 mL loading buffer (100 mM NaCl, 50 mM bis-Tris at pH 7.2 and 25 °C), followed by 20 μL 10% Dimethicone as a defoamer and 20 μL 20% BSA. Afterwards, 40 μL stock solution was added, and the mixture was loaded to the sample cell and fully deoxygenated by blowing into nitrogen at 37 °C for 15 min. Then, the oxygen equilibrium curve was recorded by blowing into oxygen.
# [1] = tested on: luciferase-labeled U87MG implanted into Balb/c nude mice brains; test: In vivo radiosensitization on orthotopically transplanted GB; parameters: species or system mouse; settings: 150 mg/kg ip combined with IR
# Protocol: In order to evaluate in vivo antitumor effects, luciferase-labeled U87MG was implanted into Balb/c nude mice brains. A small animal bioluminescence imaging system was applied to trace the tumor formation and dynamic changes in GB size. Cobalt 60 was used for fractionated-dose whole-brain irradiation therapy (IR). The tumor was irradiated with a total dose of 12 Gy in four fractions of 3 Gy at a dose rate of 0.3 Gy/min. Efaproxiral or 19c was administrated at a dosage of 150 mg/kg by intraperitoneal injection (ip) every four days over a period of sixteen days. IR was conducted 15 min after ip.
# Four-week-old female BALB/c nude mice were purchased from Beijing Vital River Laboratory Animal Technology Co., Ltd. Animals were monitored daily by certified veterinary staff and laboratory personnel. All mice used in this study were maintained in a pathogen-free barrier animal facility. The study was in compliance with all relevant ethical regulations regarding animal research. All animal experiments were approved by the Institutional Animal Care and Use Committee at the Beijing Institute of Basic Medical Sciences. The U87-luc cells were processed and resuspended into basal medium at a concentration of 10^7 cells/mL. Next, 8 × 10^5 U87-luc glioma cells were implanted into the right frontal lobes of each nude mouse. Ten days after tumor implantation, tumor-bearing mice were randomly divided into six groups according to the tumor size and subjected to the indicated treatment (n = 6). Administration of drugs (150mg/kg) or vehicle was performed once every 4 days four consecutive times by intraperitoneal injection. All radiation treatments were performed 25 min after the drug or vehicle was given. Tumors on the brains of mice were irradiated at a dosage of 3 Gy four consecutive times using a ^60Co γ irradiator. The dose rate was 0.3 Gy/min. The bodies of the mice were shielded using lead blocks. The tumor progress was tracked by a small animal live bioluminescence imaging system (LB983NC100U, Germany).
# HEK293 cells = test: Cell Titer-Glo cytotoxicity assay, HEK293; format: cell-based
# Protocol: (§1) For further in vivo evaluation of newly synthesized compounds, 19c and 19t were selected as candidates. Hemoglobin allosteric effectors require a relatively high blood concentration to be effective. Cytotoxicity evaluation was conducted out of consideration for medication safety. HEK293 and U87MG cells were used to evaluate the cytotoxicity.
# (§2) Luciferase-transfected human glioma cells (U87-luc) and HEK293 cells were kindly provided by Dr. Nie and cultured in Dulbecco’s Modified Eagle Medium (CM10013, MacGene) with 10% fetal bovine serum (1966173C, Gibco) and 1% penicillin-streptomycin in a humidified atmosphere of 5% CO2 at 37 °C.
# (§3) Cells were plated in a 96-well plate at a density of 2000 cells/well and then treated with 19c or 19t at gradient concentrations of 10^1, 10^2, 10^3, 10^4, 10^5, 10^6and 10^7 nM. Compounds 19c and 19t were prepared as the sodium salt by adding saturated sodium bicarbonate in the process of stock solution preparation. Cell viability was evaluated on the indicated days after treatment with a Cell Titer-Glo Luminescent Cell Viability Assay kit (G7572, Promega, Madison, WI, USA) according to the manufacturer’s instructions. All data were normalized to those on day 0 and presented as the mean ± standard deviation (SD).
# U87MG cells = test: Cell Titer-Glo cytotoxicity assay, U87MG; format: cell-based, human
# Protocol: as §1, §2, §3
Molecule,P50/P50C (mouse red blood cells),P50 (mouse red blood cells) [mmHg],∆P50 (mouse red blood cells),further results
"CCN(CC)c1ccc(NC(=O)Cc2ccc(OC(C)(C)C(=O)O)cc2)cc1 [19r, 2-(4-(2-((4-(diethylamino)phenyl)amino)-2-oxoethyl)phenoxy)-2-methylpropanoic acid]",1.57 ± 0.02,65.81 ± 6.64,23.97 ± 1.82 mmHg,
"COc1ccc(NC(=O)Cc2ccc(OC(C)(C)C(=O)O)cc2)cc1 [19s, 2-(4-(2-((4-methoxyphenyl)amino)-2-oxoethyl)phenoxy)-2-methylpropanoic acid]",1.45 ± 0.01,71.87 ± 0.64,22.29 ± 0.64 mmHg,
"CC(C)(Oc1ccc(/C=C/C(=O)Nc2cc(Cl)cc(Br)c2)cc1)C(=O)O [19w, (E)-2-(4-(3-((3-bromo-5-chlorophenyl)amino)-3-oxoprop-1-en-1-yl)phenoxy)-2-methylpropanoic acid]",1.50 ± 0.08,56.76 ± 2.93,18.85 ± 2.93 mmHg,
"C=CCN(CC=C)C(=O)Cc1ccc(OC(C)(C)C(=O)O)cc1 [24a, 2-(4-(2-(diallylamino)-2-oxoethyl)phenoxy)-2-methylpropanoic acid]",1.25 ± 0.21,55.80 ± 18.99,11.80 ± 11.11 mmHg,
"CC1Cc2ccccc2N1C(=O)Cc1ccc(OC(C)(C)C(=O)O)cc1 (centres unmarked) [24b, 2-methyl-2-(4-(2-(2-methylindolin-1-yl)-2-oxoethyl)phenoxy)propanoic acid]",1.46 ± 0.12,66.26 ± 5.30,21.02 ± 5.30 mmHg,
"CC(C)(Oc1ccc(CC(=O)Nc2ccc3c(c2)OCO3)cc1)C(=O)O [24c, 2-(4-(2-(benzo[d][1,3]dioxol-5-ylamino)-2-oxoethyl)phenoxy)-2-methylpropanoic acid]",1.58 ± 0.01,69.62 ± 12.16,25.61 ± 4.27 mmHg,
"CC(C)(Oc1ccc(CC(=O)Nc2ccc3ccccc3c2)cc1)C(=O)O [24d, 2-methyl-2-(4-(2-(naphthalen-2-ylamino)-2-oxoethyl)phenoxy)propanoic acid]",1.93 ± 0.01,79.50 ± 0.47,38.31 mmHg and 38.31 ± 0.47 mmHg,
"CC(C)(Oc1ccc(CC(=O)NC(c2ccccc2)c2ccccc2)cc1)C(=O)O [24e, 2-(4-(2-(benzhydrylamino)-2-oxoethyl)phenoxy)-2-methylpropanoic acid]",1.33 ± 0.24,59.61 ± 20.96,15.61 ± 13.07 mmHg,
"CC(C)(Oc1ccc(CC(=O)N(Cc2ccccc2)Cc2ccccc2)cc1)C(=O)O [24f, 2-(4-(2-(dibenzylamino)-2-oxoethyl)phenoxy)-2-methylpropanoic acid]",1.23 ± 0.12,54.51 ± 14.91,10.51 ± 7.02 mmHg,
"CCCCCCNC(=O)Cc1ccc(OC(C)(C)C(=O)O)cc1 [24g, 2-(4-(2-(hexylamino)-2-oxoethyl)phenoxy)-2-methylpropanoic acid]",1.10 ± 0.04,46.17 ± 7.11,4.34 ± 2.30 mmHg,
"CNC(=O)Cc1ccc(OC(C)(C)C(=O)O)cc1 [24h, 2-methyl-2-(4-(2-(methylamino)-2-oxoethyl)phenoxy)propanoic acid]",1.40 ± 0.11,58.11 ± 1.93,16.27 ± 2.88 mmHg,
"Cc1cc(C)cc(NC(=O)Cc2ccc(OC(C)(C)C(=O)O)cc2)c1 [Efaproxiral, 2-(4-(2-((3,5-dimethylphenyl)amino)-2-oxoethyl)phenoxy)-2-methylpropanoic acid, reference compound]",1.79 ± 0.02,82.50 ± 1.01,36.40 mmHg,∆P50 (mouse red blood cells; listed as Efaproxiral ( 19a )): 36.40 ± 1.01 mmHg; overall survival time of tumor-bearing mice compared to vehicle control [1]: could improve the overall survival time
(E)-2-(4-(3-((3-iodophenyl)amino)-3-oxoprop-1-en-1-yl)phenoxy)-2-methylpropanoic acid [19v],1.71 ± 0.05,77.49 ± 2.11,32.25 ± 2.11 mmHg,K (Hill coefficient of the oxygen dissociation curve at 50% saturation) (mouse red blood cells): 2.23 ± 0.28
(E)-2-(4-(3-((4-bromophenyl)amino)-3-oxoprop-1-en-1-yl)phenoxy)-2-methylpropanoic acid [19u],1.67 ± 0.09,63.15 ± 3.48,25.24 ± 3.48 mmHg,K (Hill coefficient of the oxygen dissociation curve at 50% saturation) (mouse red blood cells): 1.96 ± 0.17
(E)-2-methyl-2-(4-(3-((3-(methylthio)phenyl)amino)-3-oxoprop-1-en-1- yl)phenoxy) propanoic acid [19t],2.13 ± 0.07,89.62 ± 2.02,44.38 mmHg and 44.38 ± 2.02 mmHg,"K (Hill coefficient of the oxygen dissociation curve at 50% saturation) (mouse red blood cells): 2.43 ± 0.16; cytotoxicity (summary statement) (HEK293 cells; HEK293 (normal) cells): cytotoxic toward both cells with no selectivity; also recorded: cytotoxic to both normal and glioma cells at low micromolar levels without selectivity; cytotoxicity (HEK293 cells; HEK293 cells, concentration of 10 μm): showed cytotoxicity; TC50 (HEK293 cells; HEK293 cells, sodium salt stock): 165 µM; cytotoxicity (summary statement) (U87MG cells; U87MG (glioma) cells): cytotoxic toward both cells with no selectivity; also recorded: cytotoxic to both normal and glioma cells at low micromolar levels without selectivity; cytotoxicity (U87MG cells; U87MG cells, concentration of 10 μm): showed cytotoxicity; IC50 (U87MG cells; U87MG cells, sodium salt stock): 183 µM"
